Source: US20240409585A1, “MACROCYCLIC IMMUNOMODULATORS” (priority 2021, published 2024)
Where two headings read alike, the source gives them in different places. Numbered stars: 1 amine (or outer) side, 2 acyl side, 3 side chain; on linkers, the order of the positions; unused ones are H or OH. Bridge positions count the residues as written; N and C are the ends. Square brackets hold non-standard residues; d marks the D form. Peptide text beside a SMILES is read from it. * marks the point of attachment. Bip(4'-COOH) = N[C@@H](Cc1ccc(-c2ccc(C(=O)O)cc2)cc1)C(=O)O; Bip(4'-NHAc) = CC(=O)Nc1ccc(-c2ccc(C[C@H](N)C(=O)O)cc2)cc1; Phe(3-CF3) = N[C@@H](Cc1cccc(C(F)(F)F)c1)C(=O)O; Ala(morpholin-4-yl) = N[C@@H](CN1CCOCC1)C(=O)O; Phe(4-CONH2) = NC(=O)c1ccc(C[C@H](N)C(=O)O)cc1; Phe(4-COOH) = N[C@@H](Cc1ccc(C(=O)O)cc1)C(=O)O; X5 = CS(=O)(=O)NC(=O)C[C@H](N[*:1])C(=O)[*:2]; Bip = N[C@@H](Cc1ccc(-c2ccccc2)cc1)C(=O)O; Phe(3-Me) = Cc1cccc(C[C@H](N)C(=O)O)c1; Phe(2-F) = N[C@@H](Cc1ccccc1F)C(=O)O; Glutaryl = O=C(CCCC(=O)[*:2])[*:1]; hCha = N[C@@H](CCC1CCCCC1)C(=O)O; hPhe = N[C@@H](CCc1ccccc1)C(=O)O; 2Pal = N[C@@H](Cc1ccccn1)C(=O)O; Cha = N[C@@H](CC1CCCCC1)C(=O)O; Carboxymethyl = O=C(O)C*; NMeA = CN[C@@H](C)C(=O)O; Orn = NCCC[C@H](N)C(=O)O; Dab = NCC[C@H](N)C(=O)O; Dap = NC[C@H](N)C(=O)O

Target: T1, Alexa fluor-647 labeled human PD-L1-Ig binding to Jurkat cell line over-expressing human PD-1 (Homo sapiens, UniProt Q15116)
T1 construct: expressed in transfected cells; host or cells: Jurkat
T1 sequence (Q15116 25-288): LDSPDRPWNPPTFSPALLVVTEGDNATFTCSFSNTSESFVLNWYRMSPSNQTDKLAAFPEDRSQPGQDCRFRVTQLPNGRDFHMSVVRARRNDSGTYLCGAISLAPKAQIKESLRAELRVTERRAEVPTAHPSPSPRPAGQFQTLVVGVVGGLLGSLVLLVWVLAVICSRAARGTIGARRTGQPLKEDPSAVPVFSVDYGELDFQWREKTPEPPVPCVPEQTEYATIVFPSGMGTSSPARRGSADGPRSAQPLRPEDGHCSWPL
Assay: Jurkat-PD-1 Cell Binding High-Content Screening Assay (CBA): Method 3 (Alexa fluor-647 labeled PD-L1-Ig)
Settings: Jurkat-PD-1 cells, Alexa fluor-647 labeled PD-L1-Ig 177 nM
Method in brief: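 Jurkat cells over-expressing human PD-1 in RPMI/10% FCS were preincubated 2 h at 37 °C with compound, then exposed 1 h to Alexa fluor-647 labeled human PD-L1-Ig (177 nM final). Cells fixed in 4% paraformaldehyde with Hoechst 33342 and binding quantified by high-content imaging.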

[1] = head μM, read-out: CBA Method 3 μM

Row | Structure (SMILES) | IC50 [1] | IC50 (nM, read-out: CBA Method 3)
1 | CC(=O)Nc1ccc(-c2ccc(C[C@@H]3NC(=O)[C@H](Cc4cccc(C(F)(F)F)c4)NC(=O)[C@H](CC(=O)NS(C)(=O)=O)NC(=O)[C@H](Cc4ccc(C(N)=O)cc4)NC(=O)[C@H](CC(C)C)NC(=O)CSC[C@@H](C(=O)N[C@@H](CCN)C(N)=O)NC(=O)[C@H](CC(N)=O)NC(=O)[C@H](C(C)C)NC(=O)[C@H](CC4CCCCC4)NC(=O)[C@H](CCN)NC(=O)[C@@H](CC(C)C)NC(=O)[C@H](C)N(C)C(=O)[C@H](Cc4ccc(C(N)=O)cc4)NC(=O)[C@H](Cc4ccc(-c5ccccc5)cc4)NC3=O)cc2)cc1 [Example 5114] ({CH2CO}-L[Phe(4-CONH2)][X5][Phe(3-CF3)][Bip(4'-NHAc)][Bip][Phe(4-CONH2)][NMeA][dL][Dab][Cha]VNC[Dab]-NH2; thioether N-14) | 0.11 µM | 
2 | COc1ccc(C[C@@H]2NC(=O)[C@H](CN3CCOCC3)NC(=O)CSC[C@@H](C(=O)N[C@@H](CCN)C(N)=O)NC(=O)[C@H](CCCN)NC(=O)[C@H](C(C)C)NC(=O)[C@H](CC3CCCCC3)NC(=O)[C@H](CCN)NC(=O)[C@@H](CC(C)C)NC(=O)[C@H](C)N(C)C(=O)[C@H](CCC(N)=O)NC(=O)[C@H](Cc3ccc(-c4ccccc4)cc3)NC(=O)[C@H](Cc3ccc(OCC(=O)O)cc3)NC(=O)[C@H](Cc3cccc(C(F)(F)F)c3)NC(=O)[C@H](CC(=O)O)NC2=O)cc1 [Example 5263] ({CH2CO}-[Ala(morpholin-4-yl)]Y(Me)D[Phe(3-CF3)]Y(Carboxymethyl)[Bip]Q[NMeA][dL][Dab][Cha]V[Orn]C[Dab]-NH2; thioether N-14) | 0.18 µM | 
3 | CC(C)C[C@H]1NC(=O)[C@H](C)N(C)C(=O)[C@H](Cc2ccc(C(=O)O)cc2)NC(=O)[C@H](Cc2ccc(-c3ccccc3)cc2)NC(=O)[C@H](Cc2ccc(C(=O)O)cc2)NC(=O)[C@H](Cc2cccc(C(F)(F)F)c2)NC(=O)[C@H](CC(=O)O)NC(=O)[C@H](Cc2ccc(C(=O)O)cc2)NC(=O)[C@H](CN2CCOCC2)NC(=O)CSC[C@@H](C(=O)N[C@@H](CCN)C(N)=O)NC(=O)[C@H](CNC(=O)CCCC(=O)O)NC(=O)[C@H](C(C)C)NC(=O)[C@H](CC2CCCCC2)NC(=O)[C@H](CCN)NC1=O [Example 5234] ({CH2CO}-[Ala(morpholin-4-yl)][Phe(4-COOH)]D[Phe(3-CF3)][Phe(4-COOH)][Bip][Phe(4-COOH)][NMeA][dL][Dab][Cha]V[Dap](Glutaryl)C[Dab]-NH2; thioether N-14) |  | 0.0034 µM
4 | Cc1cccc(C[C@@H]2NC(=O)[C@H](CC(=O)O)NC(=O)[C@H](Cc3ccc(OCC(=O)O)cc3)NC(=O)[C@H](Cc3ccccc3F)NC(=O)CSC[C@@H](C(=O)N[C@@H](CCN)C(N)=O)NC(=O)[C@H](CCCN)NC(=O)[C@H](C(C)C)NC(=O)[C@H](CC3CCCCC3)NC(=O)[C@H](CCN)NC(=O)[C@@H](CC(C)C)NC(=O)[C@H](C)N(C)C(=O)[C@H](CCC(N)=O)NC(=O)[C@H](Cc3ccc(-c4ccccc4)cc3)NC(=O)[C@H](Cc3ccc(C(=O)O)cc3)NC2=O)c1 [Example 5293] ({CH2CO}-[Phe(2-F)]Y(Carboxymethyl)D[Phe(3-Me)][Phe(4-COOH)][Bip]Q[NMeA][dL][Dab][Cha]V[Orn]C[Dab]-NH2; thioether N-14) | 0.06 µM | 
5 | CC(=O)Nc1ccc(-c2ccc(C[C@@H]3NC(=O)[C@H](Cc4cccc(C(F)(F)F)c4)NC(=O)[C@H](CC(=O)O)NC(=O)[C@H](Cc4ccc(C(=O)O)cc4)NC(=O)[C@H](CCN)NC(=O)CSC[C@@H](C(=O)N[C@@H](CCN)C(N)=O)NC(=O)[C@H](CCC(N)=O)NC(=O)[C@H](C(C)C)NC(=O)[C@H](CC4CCCCC4)NC(=O)[C@H](CCN)NC(=O)[C@@H](CC(C)C)NC(=O)[C@H](C)N(C)C(=O)[C@H](Cc4ccc(C(N)=O)cc4)NC(=O)[C@H](Cc4ccc(-c5ccccc5)cc4)NC3=O)cc2)cc1 [Example 5097] ({CH2CO}-[Dab][Phe(4-COOH)]D[Phe(3-CF3)][Bip(4'-NHAc)][Bip][Phe(4-CONH2)][NMeA][dL][Dab][Cha]VQC[Dab]-NH2; thioether N-14) | 0.02 µM | 
6 | Cc1cccc(C[C@@H]2NC(=O)[C@H](CC(=O)O)NC(=O)[C@H](Cc3ccc(OCC(=O)O)cc3)NC(=O)[C@H](CC3CCCCC3)NC(=O)CSC[C@@H](C(=O)N[C@@H](CCN)C(N)=O)NC(=O)[C@H](CCCN)NC(=O)[C@H](C(C)C)NC(=O)[C@H](CCC3CCCCC3)NC(=O)[C@H](CCN)NC(=O)[C@@H](CC(C)C)NC(=O)[C@H](C)N(C)C(=O)[C@H](CCC(N)=O)NC(=O)[C@H](Cc3ccc(-c4ccccc4)cc3)NC(=O)[C@H](Cc3ccc(C(=O)O)cc3)NC2=O)c1 [Example 5193] ({CH2CO}-[Cha]Y(Carboxymethyl)D[Phe(3-Me)][Phe(4-COOH)][Bip]Q[NMeA][dL][Dab][hCha]V[Orn]C[Dab]-NH2; thioether N-14) | 0.38 µM | 
7 | Cc1cccc(C[C@@H]2NC(=O)[C@H](CC(=O)O)NC(=O)[C@H](Cc3ccc(OCC(=O)O)cc3)NC(=O)[C@H](Cc3ccccn3)NC(=O)CSC[C@@H](C(=O)N[C@@H](CCN)C(N)=O)NC(=O)[C@H](CCCN)NC(=O)[C@H](C(C)C)NC(=O)[C@H](CC3CCCCC3)NC(=O)[C@H](CCN)NC(=O)[C@@H](CC(C)C)NC(=O)[C@H](C)N(C)C(=O)[C@H](CCC(N)=O)NC(=O)[C@H](Cc3ccc(-c4ccccc4)cc3)NC(=O)[C@H](Cc3ccc(C(=O)O)cc3)NC2=O)c1 [Example 5172] ({CH2CO}-[2Pal]Y(Carboxymethyl)D[Phe(3-Me)][Phe(4-COOH)][Bip]Q[NMeA][dL][Dab][Cha]V[Orn]C[Dab]-NH2; thioether N-14) | 0.33 µM | 
8 | CC(C)C[C@H]1NC(=O)[C@H](C)N(C)C(=O)[C@H](CCC(N)=O)NC(=O)[C@H](Cc2ccc(-c3ccccc3)cc2)NC(=O)[C@H](Cc2ccc(-c3ccc(C(=O)O)cc3)cc2)NC(=O)[C@H](Cc2cccc(C(F)(F)F)c2)NC(=O)[C@H](CC(=O)O)NC(=O)[C@H](Cc2ccc(C(=O)O)cc2)NC(=O)[C@H](Cc2ccc(OCC(=O)O)cc2)NC(=O)CSC[C@@H](C(=O)N[C@@H](CCN)C(N)=O)NC(=O)[C@H](CCCN)NC(=O)[C@H](C(C)C)NC(=O)[C@H](CC2CCCCC2)NC(=O)[C@H](CCN)NC1=O [Example 5167] ({CH2CO}-Y(Carboxymethyl)[Phe(4-COOH)]D[Phe(3-CF3)][Bip(4'-COOH)][Bip]Q[NMeA][dL][Dab][Cha]V[Orn]C[Dab]-NH2; thioether N-14) |  | 0.0003 µM
9 | CC(C)C[C@H]1NC(=O)[C@H](C)N(C)C(=O)[C@H](CCC(N)=O)NC(=O)[C@H](Cc2ccc(-c3ccccc3)cc2)NC(=O)[C@H](CCc2ccccc2)NC(=O)[C@H](Cc2cccc(C(F)(F)F)c2)NC(=O)[C@H](CC(=O)O)NC(=O)[C@H](Cc2ccc(O)cc2)NC(=O)[C@H](CN2CCOCC2)NC(=O)CSC[C@@H](C(=O)N[C@@H](CCN)C(N)=O)NC(=O)[C@H](CCC(N)=O)NC(=O)[C@H](C(C)C)NC(=O)[C@H](CC2CCCCC2)NC(=O)[C@H](CCN)NC1=O [Example 5240] ({CH2CO}-[Ala(morpholin-4-yl)]YD[Phe(3-CF3)][hPhe][Bip]Q[NMeA][dL][Dab][Cha]VQC[Dab]-NH2; thioether N-14) |  | 0.0044 µM
